# Tests used:
# [1] = system: Bovine aorta endothelial cells; assay: Growth of endothelial cells across a porous membrane from coated sutures, crystal violet; type: cell-based; conditions: coated suture separated from cells by 3 micron pore membrane; 4 days
# Experimental: Six-well cluster plates were seeded with 5×10^4 bovine aorta endothelial cells. Cell culture insert membranes (25 mm diameter) with 3 micron pores in the bottom were placed in each well. Suture material was coated with silyl-heparin-bFGF or silyl-heparin. 10 cm of suture material, either coated or uncoated, was placed in each well and medium added sufficient to cover the suture (3 mL total). One set of inserts containing an uncoated suture was spiked with 50 ng of bFGF by adding the bFGF directly to the medium and was used as a positive control. The cells were allowed to grow for 4 days, and were then fixed and stained with crystal violet. Thereafter, the stain was eluted in aqueous methanol and 0.4% SDS and monitored at 595 nm. bFGF from the silyl-heparin-bFGF coated suture was able to transit the separating permeable 3 micron membrane and act regionally to stimulate the growth of endothelial cells at the end of 4 days, as shown in FIG. 6.
# [2] = system: thigh muscle of adult rats; assay: Coated Vicryl sutures implanted in muscle, histology; type: in vivo; conditions: two weeks; compared to control suture
# Excerpt: Vicryl suture material was coated using a solution containing silyl-heparin complex or a solution containing silyl-heparin complex followed by immersion in bFGF as described above. The suture material was then rinsed extensively, air-dried, mounted on 16 gage needles and stored until use, typically overnight. Under anesthesia, the sutures were passed through the thigh muscle of adult rats and secured with knots and surgical clips. After two weeks the animals were euthanized and the sutured area removed, fixed in formalin, and processed by standard histological methods.
# C3H10T1/2 cells = assay: Cross-titration of fibronectin and silyl-heparin needed to support cell attachment; type: cell-based, murine; conditions: silyl-heparin titrated from 30 μg/well, fibronectin then applied at 4 μg/well; 24 hours; crystal violet, 610 nm
# Experimental: The optimal amount of fibronectin and silyl-heparin to support attachment of C3H10T1/2 cells was determined by cross-titration, as shown on FIG. 1. […] The fall-off for the silyl-heparin was more gradual. The curve of the relative amount of silyl-heparin on the substrate following serial dilution generally followed the cell attachment curve.
# In FIG. 1, fibronectin (Δ—Δ) or silyl-heparin (•—•) were titrated to determine the quantity needed to support attachment of C3H10T1/2 cells. All dilutions were performed in quadruplicate in wells of 96-well plates of low-attachment polystyrene. For titration of fibronectin, silyl-heparin was applied at 30 μg/well in 70% ethanol as in Example 4. After rinsing, fibronectin was applied in doubling dilutions of phosphate buffered saline starting from 4 μg/well. For titration of silyl-heparin, silyl-heparin was applied in doubling dilutions in 70% ethanol starting from silyl-heparin concentrations of 30 μg/well. Fibronectin was then applied in saline at 4 μg/well. Cells were at a concentration of 10^4 cells/well in growth medium. For both experiments, the cells were allowed 24 hours to attach and then were rinsed and fixed in buffered formalin. The cells were stained for 5 minutes with 0.01% aqueous crystal violet and the absorbance at 610 nm determined.
# [3] = system: Bovine aorta endothelial cells; assay: Capillary tube formation on coated low attachment wells; type: cell-based; conditions: 5×10^3 cells per well; DMEM containing 10% FBS; 4 days; phase contrast microscopy
# Experimental: Low attachment 96 well plates were coated with saline, silyl-heparin complex, silyl-heparin-fibrinogen complex or silyl-heparin-bFGF complex. Bovine aorta endothelial cells (5×10^3 cells) were seeded into each well in DMEM containing 10% FBS. The cells were allowed to grow for 4 days and the cultures examined by phase contrast microscopy.
# antithrombin/factor Xa = target: T1, antithrombin/factor Xa (Homo sapiens, UniProt P01008); assay: Loading efficiency of silyl-heparin complexes on materials, heparin-specific assays; type: biochemical; conditions: varied by substrate material (polystyrene, polycarbonate, polyurethane, stainless steel, titanium and others)
# T1 construct: purchased Sigma Diagnostics Procedure No. CRS 106
# Excerpt: Using contacting surfaces coated with silyl-heparin as in Example 4, and to which silyl-heparin-fibronectin was attached as in Example 5, the presence of both heparin and fibronectin was detected in analytical assays. Heparin was detected using a commercially-available an enzyme-linked assay kit (Sigma Chemical Co., St. Louis) that measured the heparin-induced inhibition of antithrombin/factor Xa as measured with a factor Xa specific chromogenic substrate. The enzyme-inhibition assay was performed in low-attachment 96 well plates following the directions of the manufacturer.
# In related studies, heparin-specific assays and diemethylene blue dye uptake were used to establish that silyl-heparin complexes could be bound to a variety of materials including polystyrene, hydrogel-coated polystyrene, polycarbonate, polyurethane, poly caprolactone, polyvinylchloride, stainless steel and titanium. The loading efficiency of silyl-heparin complexes varied by substrate material, but was generally in the range of 10-40 mlU of heparin per cm^2.
# rat lymphocytes = assay: Cell attachment on coated low-attachment polystyrene wells; type: cell-based; conditions: 10^4 cells/well, serum-containing medium
# Excerpt: (§1) Several cell types were used, including GS-9L cells (rat gliosarcoma), C3H10T1/2 (murine fibroblasts), Jurkat (human T cell), bovine aorta endothelial (BAE) cells and rat lymphocytes. GS-9L and C3H10T1/2 cells were maintained in log phase growth and detached from cultureware using Versene and collected by centrifugation. Jurkat cells grew as single cell suspensions and were collected by centrifugation. Rat lymphocytes were collected from heparinized blood by density gradient isolation over Ficoll-Hypaque® media. The collected cells were rinsed once by low speed centrifugation and suspended in either serum-free Dulbecco's Modified Eagles Medium (DMEM) containing pyruvate or RPMI 1640 containing 10% fetal bovine serum (FBS) supplemented with pyruvate. Aliquots of 10^4 cells in 100 μL were used in subsequent adhesion studies.
# (§2) The cells were examined after plating using an inverted, phase-contrast microscope. […] The amount of attachment was scored visually or quantitated. To establish the relative number of cells bound, crystal violet stained cells were dissolved in a solution of 70% ethanol containing 0.1% sodium dodecyl sulfate and 0.38 M Tris and the absorbance monitored at 610 nm, using the methods of Scragg and Ferreira (Anal Biochem 198:80-5, 1991) and Grando et al. (Skin Pharmacol 6:135-47, 1993). […]
# Jurkat (human T cell) = assay: as above; type: cell-based; conditions: 10^4 cells/well, serum-containing medium
# Excerpt: as §1, §2
# [4] = system: C3H10T1/2 (murine fibroblasts); assay: Cell attachment, spreading and growth on coated low-attachment polystyrene wells; type: cell-based; conditions: C3H10T1/2; coated low-attachment polystyrene wells; 10^4 cells/well; serum-containing medium
# Excerpt: as §1
# The cells were examined after plating using an inverted, phase-contrast microscope. At selected time points up to 4 days after initial seeding, the cells were rinsed three times in saline and fixed in buffered 10% formalin or 35% ethanol. In some cases, the cells were stained in situ with a 0.01 % aqueous solution of crystal violet. The amount of attachment was scored visually or quantitated. To establish the relative number of cells bound, crystal violet stained cells were dissolved in a solution of 70% ethanol containing 0.1% sodium dodecyl sulfate and 0.38 M Tris and the absorbance monitored at 610 nm, using the methods of Scragg and Ferreira (Anal Biochem 198:80-5, 1991) and Grando et al. (Skin Pharmacol 6:135-47, 1993).
# The cells of Example 7 were added to untreated polystyrene wells, wells coated with silyl-heparin as in Example 4, with silyl-heparin-fibronectin as in Example 5, and with only fibronectin by incubation as described in Example 5. […] Cells were seeded at a concentration of 10^4 cells/well in serum-containing medium.
# The cells grew to confluency by 4 days. […] No effort was made to grow the cells in a defined- or serum-low medium known to support growth. […]
# T1 sequence (P01008 33-464): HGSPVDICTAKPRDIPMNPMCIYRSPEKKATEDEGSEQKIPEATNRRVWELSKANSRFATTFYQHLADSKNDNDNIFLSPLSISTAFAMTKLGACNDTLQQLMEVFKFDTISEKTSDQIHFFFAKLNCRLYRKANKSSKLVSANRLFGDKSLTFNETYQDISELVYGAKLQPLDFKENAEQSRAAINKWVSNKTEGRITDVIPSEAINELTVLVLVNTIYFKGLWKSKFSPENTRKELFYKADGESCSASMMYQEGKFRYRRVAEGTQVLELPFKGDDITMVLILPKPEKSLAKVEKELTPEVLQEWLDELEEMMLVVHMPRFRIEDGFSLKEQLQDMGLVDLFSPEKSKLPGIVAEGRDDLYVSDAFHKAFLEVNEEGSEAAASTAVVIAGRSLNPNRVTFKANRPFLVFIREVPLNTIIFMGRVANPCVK
substance,measurement,setting,value
"benzyl-(1,2 dimethyl)disilyl heparin [silyl-heparin]",growth (cell number) of endothelial cells,[1],did not result in an increase in cell number
same,diameter or area of granulation tissue surrounding the suture,[2],tended to have a smaller area of granulation
same,EC50 to support attachment of C3H10T1/2 cells,C3H10T1/2 cells,about 8.7 μg/well
same,capillary tube formation,[3],Tubes did not form
same,loading efficiency of silyl-heparin complexes,antithrombin/factor Xa,10-40 mlU of heparin per cm^2
same,CELL ATTACHMENT,rat lymphocytes,did not attach
same,CELL ATTACHMENT,Jurkat (human T cell),did not attach
same,CELL ATTACHMENT,[4],did not attach

# Source: patent US6921811B2, “Bioactive coating composition and methods” (BioSurface Engineering Technologies, Inc., priority 1998, dated 2005)
